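Step 1: Grow cells in 96-well plates. Step 2: Expose to compound for 48 hours at 5 concentrations. Step 3: Interpolate endpoints linearly; if unreached, use highest concentration. Here, GI50 denotes the concentration required for 50% inhibition of growth. The concentration for full growth arrest is given as TGI.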

The subject of the first test is HT29 colon. Briefly: NCI tumour cell line growth inhibition, 48 h.
`O=C(/C=C/C=C/c1ccccc1)c1ccc2c(c1)CCCC2` showed a TGI of over 100 µM.

The test system of another test is K-562 leukemia. Briefly: NCI tumour cell line growth inhibition, 48 h.
`O=C(c1cc(Cl)cc(Cl)c1)N1CCN(C(=O)c2cc(Cl)cc(Cl)c2)C1=S` returned a TGI of over 50.8 µM.
Same read-out and setting: for `C[C@@H]1C[C@](O)([C@@H](C)Cl)C(=O)O[C@@H]2CCN3CC=C(COC(=O)[C@]1(C)O)[C@H]23` the value was over 100 µM.
The same measure, in the same setting: for `CC(=O)Nc1ccc(-c2nc3cc(Cl)ccc3o2)cc1` the value was over 50 µM; for `O=C(/C=C/C=C/c1ccccc1)c1ccc2c(c1)CCCC2`, over 100 µM.

The subject of the next test is NCI-H460 lung. In words: NCI tumour cell line growth inhibition, 48 h.
As for `O=C(c1cc(Cl)cc(Cl)c1)N1CCN(C(=O)c2cc(Cl)cc(Cl)c2)C1=S`, the TGI came out at 37.2 µM.
Same read-out and setting: for `C[C@@H]1C[C@](O)([C@@H](C)Cl)C(=O)O[C@@H]2CCN3CC=C(COC(=O)[C@]1(C)O)[C@H]23` the value was over 10 µM; for `CC(=O)Nc1ccc(-c2nc3cc(Cl)ccc3o2)cc1`, over 50 µM.

Another test concerns SK-MEL-28 melanoma. Briefly: NCI tumour cell line growth inhibition, 48 h.
`O=C(c1cc(Cl)cc(Cl)c1)N1CCN(C(=O)c2cc(Cl)cc(Cl)c2)C1=S` came in with a TGI of over 54.5 µM.
Still for that read-out and setting: for `C[C@@H]1C[C@](O)([C@@H](C)Cl)C(=O)O[C@@H]2CCN3CC=C(COC(=O)[C@]1(C)O)[C@H]23` the value was over 100 µM.
Compound `CC(=O)Nc1ccc(-c2nc3cc(Cl)ccc3o2)cc1` displayed a TGI of over 50 µM.
`O=C(/C=C/C=C/c1ccccc1)c1ccc2c(c1)CCCC2`: the TGI is over 100 µM.

The next test concerns SK-OV-3 ovarian. In words: NCI tumour cell line growth inhibition, 48 h.
For `O=C(c1cc(Cl)cc(Cl)c1)N1CCN(C(=O)c2cc(Cl)cc(Cl)c2)C1=S`, the TGI turned out to be 29.8 µM.
Consider `C[C@@H]1C[C@](O)([C@@H](C)Cl)C(=O)O[C@@H]2CCN3CC=C(COC(=O)[C@]1(C)O)[C@H]23`, for which the TGI is over 100 µM.
For the compound `CC(=O)Nc1ccc(-c2nc3cc(Cl)ccc3o2)cc1`, the TGI was over 50 µM.
As for `O=C(/C=C/C=C/c1ccccc1)c1ccc2c(c1)CCCC2`, the TGI was over 100 µM.

In another test the test system is OVCAR-4 ovarian. In words: NCI tumour cell line growth inhibition, 48 h.
The compound `O=C(c1cc(Cl)cc(Cl)c1)N1CCN(C(=O)c2cc(Cl)cc(Cl)c2)C1=S` yielded a TGI of 38.4 µM.
Same read-out and setting: for `C[C@@H]1C[C@](O)([C@@H](C)Cl)C(=O)O[C@@H]2CCN3CC=C(COC(=O)[C@]1(C)O)[C@H]23` the value was over 100 µM; for `CC(=O)Nc1ccc(-c2nc3cc(Cl)ccc3o2)cc1`, over 50 µM; for `O=C(/C=C/C=C/c1ccccc1)c1ccc2c(c1)CCCC2`, over 100 µM.

In the next test the test system is NCI/ADR-RES ovarian. Briefly: NCI tumour cell line growth inhibition, 48 h.
Turning to `O=C(c1cc(Cl)cc(Cl)c1)N1CCN(C(=O)c2cc(Cl)cc(Cl)c2)C1=S`, the GI50 was 31.7 µM and the TGI was over 100 µM.
Regarding `C[C@@H]1C[C@](O)([C@@H](C)Cl)C(=O)O[C@@H]2CCN3CC=C(COC(=O)[C@]1(C)O)[C@H]23`, the TGI was over 100 µM.
Take `CC(=O)Nc1ccc(-c2nc3cc(Cl)ccc3o2)cc1`: the TGI is over 50 µM.
`O=C(/C=C/C=C/c1ccccc1)c1ccc2c(c1)CCCC2` displayed a TGI of 65.8 µM.

Another test deals with MDA-MB-435. In words: NCI tumour cell line growth inhibition, 48 h.
`O=C(c1cc(Cl)cc(Cl)c1)N1CCN(C(=O)c2cc(Cl)cc(Cl)c2)C1=S`: the TGI amounted to 29.9 µM.
On the same count and under the same terms, for `C[C@@H]1C[C@](O)([C@@H](C)Cl)C(=O)O[C@@H]2CCN3CC=C(COC(=O)[C@]1(C)O)[C@H]23` the value was over 100 µM.
On the same count and under the same terms, the result for `CC(=O)Nc1ccc(-c2nc3cc(Cl)ccc3o2)cc1` reads over 50 µM.
Same read-out and setting: for `O=C(/C=C/C=C/c1ccccc1)c1ccc2c(c1)CCCC2` the value was 40.8 µM.

For another test, the system named is OVCAR-3 ovarian. In words: NCI tumour cell line growth inhibition, 48 h.
In turn, `O=C(c1cc(Cl)cc(Cl)c1)N1CCN(C(=O)c2cc(Cl)cc(Cl)c2)C1=S` returned a TGI of 26.9 µM.
For `C[C@@H]1C[C@](O)([C@@H](C)Cl)C(=O)O[C@@H]2CCN3CC=C(COC(=O)[C@]1(C)O)[C@H]23`, the TGI was over 100 µM.
Consider `CC(=O)Nc1ccc(-c2nc3cc(Cl)ccc3o2)cc1`, for which the TGI is over 50 µM.
On the same count and under the same terms, for `O=C(/C=C/C=C/c1ccccc1)c1ccc2c(c1)CCCC2` the value was over 100 µM.

The next test concerns CCRF-CEM leukemia. In words: NCI tumour cell line growth inhibition, 48 h.
Compound `O=C(c1cc(Cl)cc(Cl)c1)N1CCN(C(=O)c2cc(Cl)cc(Cl)c2)C1=S` displayed a TGI of 21.4 µM.
Compound `C[C@@H]1C[C@](O)([C@@H](C)Cl)C(=O)O[C@@H]2CCN3CC=C(COC(=O)[C@]1(C)O)[C@H]23` registered a TGI of over 10 µM.
Same read-out and setting: for `CC(=O)Nc1ccc(-c2nc3cc(Cl)ccc3o2)cc1` the value was over 50 µM; for `O=C(/C=C/C=C/c1ccccc1)c1ccc2c(c1)CCCC2`, over 100 µM.

The next test concerns A498 renal. In words: NCI tumour cell line growth inhibition, 48 h.
With `O=C(c1cc(Cl)cc(Cl)c1)N1CCN(C(=O)c2cc(Cl)cc(Cl)c2)C1=S`, the TGI was 31.6 µM.
Still for that read-out and setting: the result for `C[C@@H]1C[C@](O)([C@@H](C)Cl)C(=O)O[C@@H]2CCN3CC=C(COC(=O)[C@]1(C)O)[C@H]23` reads over 100 µM.
Take `CC(=O)Nc1ccc(-c2nc3cc(Cl)ccc3o2)cc1`: the TGI is over 50 µM.
On the same count and under the same terms, for `O=C(/C=C/C=C/c1ccccc1)c1ccc2c(c1)CCCC2` the value was over 100 µM.

In another test the test system is NCI-H226 lung. Briefly: NCI tumour cell line growth inhibition, 48 h.
With `O=C(c1cc(Cl)cc(Cl)c1)N1CCN(C(=O)c2cc(Cl)cc(Cl)c2)C1=S`, the TGI worked out at 49.8 µM.
As to `C[C@@H]1C[C@](O)([C@@H](C)Cl)C(=O)O[C@@H]2CCN3CC=C(COC(=O)[C@]1(C)O)[C@H]23`, the TGI was over 100 µM.
Same read-out and setting: for `CC(=O)Nc1ccc(-c2nc3cc(Cl)ccc3o2)cc1` the value was over 50 µM; for `O=C(/C=C/C=C/c1ccccc1)c1ccc2c(c1)CCCC2`, 90.9 µM.

The test system of the next test is OVCAR-5 ovarian. In words: NCI tumour cell line growth inhibition, 48 h.
In turn, `O=C(c1cc(Cl)cc(Cl)c1)N1CCN(C(=O)c2cc(Cl)cc(Cl)c2)C1=S` returned a TGI of 42.2 µM.
Same read-out and setting: the result for `C[C@@H]1C[C@](O)([C@@H](C)Cl)C(=O)O[C@@H]2CCN3CC=C(COC(=O)[C@]1(C)O)[C@H]23` reads over 100 µM; that for `CC(=O)Nc1ccc(-c2nc3cc(Cl)ccc3o2)cc1`, over 50 µM; that for `O=C(/C=C/C=C/c1ccccc1)c1ccc2c(c1)CCCC2`, over 100 µM.

For the next test, the system named is HCC-2998 colon. Briefly: NCI tumour cell line growth inhibition, 48 h.
In the case of `O=C(c1cc(Cl)cc(Cl)c1)N1CCN(C(=O)c2cc(Cl)cc(Cl)c2)C1=S`, the TGI stood at 31 µM.
Same read-out and setting: the result for `C[C@@H]1C[C@](O)([C@@H](C)Cl)C(=O)O[C@@H]2CCN3CC=C(COC(=O)[C@]1(C)O)[C@H]23` reads over 100 µM.
On the same count and under the same terms, the result for `CC(=O)Nc1ccc(-c2nc3cc(Cl)ccc3o2)cc1` reads over 50 µM; that for `O=C(/C=C/C=C/c1ccccc1)c1ccc2c(c1)CCCC2`, 63.3 µM.

For a further test, the system named is SNB-19 CNS. Briefly: NCI tumour cell line growth inhibition, 48 h.
With `O=C(c1cc(Cl)cc(Cl)c1)N1CCN(C(=O)c2cc(Cl)cc(Cl)c2)C1=S`, the TGI came to 37.1 µM.
On the same count and under the same terms, the result for `C[C@@H]1C[C@](O)([C@@H](C)Cl)C(=O)O[C@@H]2CCN3CC=C(COC(=O)[C@]1(C)O)[C@H]23` reads over 10 µM; that for `CC(=O)Nc1ccc(-c2nc3cc(Cl)ccc3o2)cc1`, over 50 µM; that for `O=C(/C=C/C=C/c1ccccc1)c1ccc2c(c1)CCCC2`, over 100 µM.

For the origin of these results see PubChem BioAssay (NCI).
